{"source": "patent US9474780B2", "about": "“GIP and GLP-1 co-agonist compounds” (Eli Lilly and Company, priority 2015, dated 2016)", "key": {"[1]": {"assay": "Plasma corticosterone in Sprague Dawley rats", "type": "in vivo, rat", "description": "Plasma corticosterone levels are evaluated using Sprague Dawley Rats (Harlan, Indianapolis), weighing approximately 220 g and acclimated for at least 72 hours before handling. The rats are then dosed with vehicle (20 mM citrate buffer, pH 7), semaglutide (10 nmol/kg), or compounds of the present invention at 3, 10 or 30 nmol/kg s.c. with 8 rats per dose group. The rats are decapitated 16 hours later. Blood is collected into EDTA tubes on ice, then centrifuged 5 minutes at 8000 RPM in a Eppendorf 5402 tabletop centrifuge. Plasma is stored at −80° C. until analysis.\nFor corticosterone analysis, corticosterone standards (Sigma, 27840) are prepared by serial dilutions in HPLC-grade methanol, H2O and the addition of 5% charcoal stripped rat serum (Bioreclamation, RATSRM-STRPD-HEV). Rat plasma samples are diluted with PBS, precipitated with cold methanol, incubated for 20 minutes at −20° C., and then centrifuged at 14,000 RPM with an Eppendorf 5417R at 4° C. Supernatants are extracted, evaporated under a stream of N2 gas, and reconstituted in MeOH/H2O (1:1) solution."}, "[2]": {"assay": "Weight loss, body composition and hepatic steatosis in DIO mice", "type": "in vivo, mouse", "settings": "for Blood Glucose: Day 15", "method_in_brief": "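C57/BL6 DIO mice, individually housed at 24 °C, 12 h light/dark, food and water ad libitum; daily body weight and food intake, weight change versus pre-dose value of the same animal. Day 15: tail-vein glucose, then liver triglycerides and plasma cholesterol; ANOVA with Dunnett's test, ED50 for weight loss by non-linear fit.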"}, "[3]": {"assay": "Rat in vivo insulin secretion following intravenous glucose (IVGTT)", "settings": "s.c. 16 hour prior to glucose", "method_in_brief": "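Male Wistar rats dosed s.c. with vehicle or 0.1–10 nmol/kg 16 h before glucose, then fasted and anesthetized with pentobarbital i.p. (65 mg/kg). Glucose ([…]) given after a time-zero bleed; plasma sampled at 2, 4, 6, 10, 20, 30 min. Glucose measured by analyzer, insulin by MSD immunoassay.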"}, "[4]": {"assay": "Gastric emptying in DIO mice", "type": "in vivo, mouse", "settings": "30 nmol/kg SC, semi-liquid diet, 2 hours", "description": "The effects on gastric emptying in DIO mice for compounds of the present invention are evaluated in 23 week old diet-induced obese (DIO) male mice (Harlan). The mice are fasted for 16-17 hours. During the start of fasting period the mice are dosed subcutaneously with vehicle control (20 mM citrate buffer at pH 7.0); escalating doses of compounds of the present invention (3, 10, 30 and 100 nmol/kg), or a long-acting GLP1 analogue, semaglutide, (30 nmol/kg). The next day, mice are administered 0.5 ml (0.5 gram) of freshly prepared semi-liquid diet (2 minutes apart) by oral gavage. Water is removed at this time to prevent dilution of administered diet. Two hours after diet administration, mice are euthanized two minutes apart by CO2 gas. The stomach is removed while clamped at both cardiac and pyloric openings, then clamps removed and the full stomach weighed in a weigh boat. The stomach is then incised and contents removed. The stomach is washed and dried and re-weighed to assess food contents in stomach. The % gastric emptying equals 100×(1−(food remaining in stomach/food orally administered))."}, "[5]": {"assay": "Energy metabolism in DIO mice (indirect calorimetry)", "type": "in vivo, mouse", "settings": "SC every three days for 22 days, from week 2, semaglutide 30 nmol/kg", "description": "The effects on energy metabolism in DIO mice for compounds of the present invention are evaluated in 26 week old C57/B16 DIO male mice, weighing 43-50 g. Mice are individually housed in a temperature-controlled (24° C.) facility with a 12 hour light/dark cycle (lights on 22:00), and with free access to food TD95217 (Teklad) and water. After 2 weeks acclimation to the facility, mice are randomized to treatment groups (n=6/group) based on body weight so each group has similar starting mean body weight. Animals are placed in a PhenoMaster/LabMaster calorimeter (TSE Systems, Chesterfield, Mo.) for 3 days of acclimation. Vehicle control (20 mM citrate buffer at pH 7.0, 10 ml/kg), compounds of the present invention, or a long-acting GLP1 analogue, semaglutide, (30 nmol/kg) are subcutaneously administered to ad libitum fed DIO mice 30-90 minutes prior to the onset of the dark cycle every three days for 22 days. Heat and respiratory quotient (RER) are measured by indirect calorimetry as described using an open-circuit calorimetry system. RER is the ratio of the volume of CO2 produced (Vco2) to the volume of O2 consumed (Vo2). Heat is calculated with full body weight considered: VO2=FlowML*(V1+V2)/N2Ref*Animal weight*100) VCO2=FlowML*dCO2/Animal weight*100) Heat=(CVO2*VO2+CVCO2*VCO2)/1000; where CVO2=3.941; CVCO2=1.106"}, "[6]": {"assay": "Dose potency projection: rat ivGTT exposure response Emax model", "type": "in vivo", "settings": "single SC dose, ivGTT 16 hours post-dosage", "description": "The intravenous glucose tolerance test (ivGTT) in the rat is used to estimate relative potency of compounds of the present invention in comparison to semaglutide. […] Exposure is measured at the time of the ivGTT, and for exposure response modeling, the insulin AUC in response to the ivGTT is used as the primary endpoint. […] Both data sets are fit simultaneously and E0 and Emax values are constrained to be the same for both compounds. Only ED50 values are fit separately for the compounds."}}, "note": "Marks after values point to notes of the source that are not given here.", "data": [{"substance": "semaglutide [reference compound]", "values": [{"measurement": "Corticosterone, Mean", "setting": "[1]; 10 nmol/kg s.c., 16 hours", "value": 274.57, "unit": "ng/mL"}, {"measurement": "increase in plasma corticosterone levels over control", "setting": "[1]; Example 1 at 3, 10, 30 nmol/kg, semaglutide 10 nmol/kg", "value": "approximately 4 ×"}, {"measurement": "% Change from starting body weight", "setting": "[2]; Table 8, 10 nmol/kg", "value": "−12.36 ± 1.00", "unit": "%"}, {"measurement": "% Change from starting fat mass", "setting": "[2]; Table 8, 10 nmol/kg", "value": "−18.21 ± 2.24", "unit": "%"}, {"measurement": "% Change from starting body weight", "setting": "[2]; Table 8, 30 nmol/kg", "value": "−14.20 ± 1.01", "unit": "%"}, {"measurement": "% Change from starting fat mass", "setting": "[2]; Table 8, 30 nmol/kg", "value": "−21.90 ± 2.07", "unit": "%"}, {"measurement": "% Change from starting body weight", "setting": "[2]; Table 8, 100 nmol/kg", "value": "−19.30 ± 1.38", "unit": "%"}, {"measurement": "% Change from starting fat mass", "setting": "[2]; Table 8, 100 nmol/kg", "value": "−33.51 ± 3.30", "unit": "%"}, {"measurement": "% Change from starting body weight", "setting": "[2]; Table 9, 30 nmol/kg", "value": "−17.03 ± 0.98", "unit": "%"}, {"measurement": "% Change from starting fat mass", "setting": "[2]; Table 9, 30 nmol/kg", "value": "−35.94 ± 4.09", "unit": "%"}, {"measurement": "Plasma Cholesterol", "setting": "[2]; Table 11, 10 nmol/kg", "value": "226.8 ± 13.86", "unit": "mg/dL"}, {"measurement": "Plasma Triglycerides", "setting": "[2]; Table 11, 10 nmol/kg", "value": "27.36 ± 3.56", "unit": "mg/dL"}, {"measurement": "Blood Glucose", "setting": "[2]; Table 11, 10 nmol/kg", "value": "147.6 ± 6.13", "unit": "mg/dL"}, {"measurement": "Plasma Cholesterol", "setting": "[2]; Table 11, 30 nmol/kg", "value": "229.8 ± 10.96", "unit": "mg/dL"}, {"measurement": "Plasma Triglycerides", "setting": "[2]; Table 11, 30 nmol/kg", "value": "27.9 ± 6.01", "unit": "mg/dL"}, {"measurement": "Blood Glucose", "setting": "[2]; Table 11, 30 nmol/kg", "value": "146.8 ± 8.43", "unit": "mg/dL"}, {"measurement": "Plasma Cholesterol", "setting": "[2]; Table 11, 100 nmol/kg", "value": "218.4 ± 18.70", "unit": "mg/dL"}, {"measurement": "Plasma Triglycerides", "setting": "[2]; Table 11, 100 nmol/kg", "value": "36.46 ± 5.34", "unit": "mg/dL"}, {"measurement": "Blood Glucose", "setting": "[2]; Table 11, 100 nmol/kg", "value": "134.3 ± 9.22", "unit": "mg/dL"}, {"measurement": "Liver Triglycerides", "setting": "[2]; Table 12, 30 nmol/kg", "value": "67.63 ± 23.40", "unit": "mg/g tissue"}, {"measurement": "Plasma Cholesterol", "setting": "[2]; Table 12, 30 nmol/kg", "value": "161.0 ± 13.92", "unit": "mg/dL"}, {"measurement": "Blood Glucose", "setting": "[2]; Table 12, 30 nmol/kg", "value": "136.3 ± 3.81", "unit": "mg/dL"}, {"measurement": "% max increase of insulin AUC", "setting": "[3]", "value": "231 +/− 13%"}, {"measurement": "ED50 for insulin, rat IVGTT", "setting": "[3]", "value": 0.70, "unit": "nmol/kg"}, {"measurement": "Percent Gastric Emptying", "setting": "[4]", "value": "30.56 +/− 7.53** %"}, {"measurement": "increase in metabolic rate compared to the control group", "setting": "[5]", "value": "no effect on metabolic rate"}, {"measurement": "ED50 (Emax model, insulin AUC in ivGTT)", "setting": "[6]", "value": "0.6 ± 0.2", "unit": "nmol/kg"}]}]}
